Here are results for six molecules from patent EP0326329B1, “Quinazoline derivatives useful as insecticides” (Dow AgroSciences LLC, priority 1988, dated 1989).

Type in all cases: in vivo
Experiment [1] has as its system Botrytis cinerea (gray mold). Kind of experiment: Greenhouse Test 1, foliar spray fungicide screen (GRAY MOLD), host grape berries. To be noted: disease control rating, 400 ppm (+++ at 100 ppm).
Experiment [2] relates to Pyricularia oryzae (rice blast). To be noted: disease control rating, foliar spray, host rice; 400 ppm (+++ at 100 ppm).
For experiment [3], the system named is Pseudoperonospora cubensis (downy mildew). Kind of experiment: Greenhouse Test 1, foliar spray fungicide screen (DOWN MDEW), host squash. To be noted: disease control rating, 400 ppm (+++ at 100 ppm).
Experiment [4] deals with Erysiphe graminis tritici (powdery mildew). Kind of experiment: Greenhouse Test 1, foliar spray fungicide screen (POWD MDEW), host wheat. The following applies: disease control rating, 400 ppm (+++ at 100 ppm).
Experiment [5] concerns melon aphids (Aphis gossypii Glover). Kind of experiment: Mite/insect screen, sprayed squash cotyledons (MA). To be noted: Aphis gossypii, percent mortality, read-out: MA RESULTS %; for mortality at 400 ppm: spray rate 400 ppm. Here is the method: (§1) The compounds of Examples 1-203 were tested for miticidal and insecticidal activity in the following mite/insect screen.
(§2) Each test compound was formulated by dissolving the compound in acetone/alcohol (50:50) mixture containing 23 g of "TOXIMUL R" (sulfonate/nonionic emulsifier blend) and 13 g of "TOXIMUL S" (sulfonate/nonionic emulsifier blend) per liter. These mixtures were then diluted with water to give the indicated concentrations.
(§3) Other plants in the same treatment pot were left uninfested. The leaves were then sprayed with 5 ml of test solution using a DeVilbiss atomizing sprayer at 10 psi. Both surfaces of the leaves were covered until runoff, and then allowed to dry for one hour. Two uninfested leaves were then excised and placed into a Petri dish containing larval southern armyworm (Spodopetra eridania Cramer).
(§4) After standard exposure periods, percent mortality and phytotoxicity were evaluated. […]

For experiment [6], the system named is Twospotted spider mites (Tetranychus urticae Koch). Description: Mite/insect screen, sprayed squash cotyledons (SM). To be noted: Tetranychus urticae, percent mortality, read-out: SM RESULTS %; for mortality at 400 ppm: spray rate 400 ppm. How it is done: as §1, §2, §3, §4
The subject of experiment [7] is Puccinia recondita tritici (leaf rust). Kind of experiment: Greenhouse Test 1, foliar spray fungicide screen (LEAF RUST), host wheat. To be noted: disease control rating, 400 ppm (+++ at 100 ppm).
Experiment [8] concerns Southern corn rootworm (Diabrotica undecimpuctata howardi Barber). Kind of experiment: Mite/insect screen, soil treatment (CRW). To be noted: Diabrotica, percent mortality, soil treatment, read-out: CRW RESULTS %; for mortality at 24 ppm: CRW rate 24.00 ppm. Here is the method: as §1, §2
Activity on Southern corn rootworm (Diabrotica undecimpuctata howardi Barber) was evaluated by adding two ml of tap water, a presoaked corn seed, and 15 g of dry sandy soil to a one ounce plastic container. The soil was treated with 1 mL of test solution containing a pre-determined concentration of test compound. After six to 12 hours of drying, five 2-3 instar corn rootworm larvae were added to the individual cups, which were then capped and held at 23°C.
as §4

Experiment [9] concerns southern armyworm (Spodopetra eridania Cramer). Description: Mite/insect screen, sprayed squash leaves (SAW). The following applies: Spodoptera eridania, percent mortality, read-out: SAW RESULTS %; for mortality at 400 ppm: spray rate 400 ppm. How it is done: as §1, §2, §3, §4

Turning to `Fc1cccc2c(OCCc3ccc(Oc4ccccc4)cc3)ncnc12` [Example 10, 8-fluoro-4-[2-(4-phenoxyphenyl)ethoxy]quinazoline], the “GRAY MOLD” value in [1] is listed as “- (- = 0-19% control at 400 ppm)”. Besides, the “RICE BLAST” value in [2] is on record as “+++ (+++ = 90-100% control at 100 ppm)”. In addition, the “DOWN MDEW” value in [3] is recorded as “+++ (+++ = 90-100% control at 100 ppm)”. The “POWD MDEW” value in [4] is “+++ (+++ = 90-100% control at 100 ppm)”. The figures for the mortality at 400 ppm in experiment [5], in experiment [6] and in experiment [9] were 0%, 0% and 100%, respectively. Besides, in [7], the “LEAF RUST” value is “+++ (+++ = 90-100% control at 100 ppm)”. In [8], the mortality at 24 ppm was found to be 0%.

As for `Clc1ccccc1CCOc1ncnc2ccccc12` [Example 11, 4-[2-(2-chlorophenyl)ethoxy]quinazoline], in experiment [1], the “GRAY MOLD” value is listed as “- (- = 0-19% control at 400 ppm)”. The “RICE BLAST” value in experiment [2] is recorded as “- (- = 0-19% control at 400 ppm)”. The “DOWN MDEW” value in experiment [3] was “+++ (+++ = 90-100% control at 100 ppm)”. For the same molecule, the “POWD MDEW” value in experiment [4] was “++ (++ = 90-100% control at 400 ppm)”. For the same molecule, the mortality at 400 ppm in experiment [5], in experiment [6] and in experiment [9] was 0% throughout. Moreover, the “LEAF RUST” value in experiment [7] was “++ (++ = 90-100% control at 400 ppm)”. In [8], the mortality at 24 ppm was found to be 0%.

Turning to `COc1cccc(CCOc2ncnc3ccccc23)c1` [Example 13, 4-[2-(3-methoxyphenyl)ethoxy]quinazoline], the “GRAY MOLD” value in experiment [1] is on record as “- (- = 0-19% control at 400 ppm)”. Also, in experiment [2], the “RICE BLAST” value is recorded as “+++ (+++ = 90-100% control at 100 ppm)”. Besides, the “DOWN MDEW” value in [3] is given as “+++ (+++ = 90-100% control at 100 ppm)”. For the same molecule, the “POWD MDEW” value in experiment [4] is “+++ (+++ = 90-100% control at 100 ppm)”. The mortality at 400 ppm in experiment [5] amounted to 90%; in [6], 90%; in experiment [9], 0%. The “LEAF RUST” value in experiment [7] was “+++ (+++ = 90-100% control at 100 ppm)”. Further, in [8], the mortality at 24 ppm came out at 0%.

Consider `COc1ccccc1CCOc1ncnc2ccccc12` [Example 14, 4-[2-(2-methoxyphenyl)ethoxy]quinazoline], for which the “GRAY MOLD” value in [1] is reported as “- (- = 0-19% control at 400 ppm)”. Further, in [2], the “RICE BLAST” value is “+ (+ = 20-89% control at 400 ppm)”. The “DOWN MDEW” value in experiment [3] was “++ (++ = 90-100% control at 400 ppm)”. In addition, in experiment [4], the “POWD MDEW” value is on record as “+ (+ = 20-89% control at 400 ppm)”. Also, the mortality at 400 ppm in [5], in experiment [6] and in [9] was 0% throughout. In addition, the “LEAF RUST” value in [7] was “+ (+ = 20-89% control at 400 ppm)”. In addition, the mortality at 24 ppm in [8] is 0%.

Take `c1ccc2c(c1)Cc1cc(CCOc3ncnc4ccccc34)ccc1-2` [Example 20, 4-[2-(9H-fluoren-2-yl)ethoxy]quinazoline]: the “RICE BLAST” value in [2] was “++ (++ = 90-100% control at 400 ppm)”. Besides, the “DOWN MDEW” value in experiment [3] was “+ (+ = 20-89% control at 400 ppm)”. In addition, the “POWD MDEW” value in [4] is “++ (++ = 90-100% control at 400 ppm)”. The mortality at 400 ppm in [5] turned out to be 100%; in experiment [6] it was 100%; in experiment [9], 60%. Also, in experiment [7], the “LEAF RUST” value is “+ (+ = 20-89% control at 400 ppm)”. For the same molecule, the mortality at 24 ppm in [8] was 100%.

With `FC(F)(F)c1ccc(CCOc2ncnc3ccccc23)cc1` [Example 134, 4-[2-[4-(trifluoromethyl)phenyl]ethoxy]quinazoline], in [2], the “RICE BLAST” value was “+++ (+++ = 90-100% control at 100 ppm)”. The “POWD MDEW” value in [4] is “+++ (+++ = 90-100% control at 100 ppm)”. The mortality at 200 ppm in experiment [5] (spray rate 200 ppm) was 100%; in [6] (spray rate 200 ppm) it was 90%; in [9] (spray rate 200 ppm), 60%. Also, the mortality at 400 ppm in experiment [5], in experiment [6] and in [9] was 100% each time. Besides, the “LEAF RUST” value in experiment [7] is reported as “+++ (+++ = 90-100% control at 100 ppm)”. In [8] (CRW rate 12.00 ppm), the mortality at 12 ppm is 0%. Also, in [8], the mortality at 24 ppm is 0%.
